In patent US11896644B2, “Inhibition of beta-arrestin oligomerization in tauopathy” (UNIVERSITY OF SOUTH FLORIDA, priority 2020, dated 2024):
One block for each molecule: values may come before it.

Columns and labels:
phospho-tau [1] = assay: Phospho-tau in tauP301S cortical primary neurons treated with GPCR agonists; type: cell-based, mice; settings: 10 μM
Source text: FIGS. 20A to 20E show β-arrestin is required mGluR2 and β2AR mediated tau accumulation and phosphorylation. […] Representative blots are shown. […] Unpaired t-test. All data are presented as mean±SEM. […] Representative blots are shown. […] Unpaired t-test. All data are presented as mean±SEM. […] Representative blots are shown.
Based on these prior observations, the goal was to confirm these findings in tauP301S transgenic primary neurons and Hela cells stably expressing tau (V5-tagged 4R0N tau, Hela-V5-tau cells).

phospho-tau [2] = assay: Phospho-tau immunoblot in Hela-V5-tau cells transfected with siRNA and treated with GPCR agonists; type: cell-based; settings: for tau phosphorylation: 10 μM, control siRNA or β-arrestin2 siRNA experiment (FIGS. 13E,13F); for phospho-tau response in β-arrestin1 siRNA transfected cells: β-arrestin1 knockdown; for tau phosphorylation, control siRNA transfected cells: β-arrestin1 siRNA experiments (FIGS. 13A-13D)
Experimental: FIGS. 13A to 13F show β-arrestin1 is required for mGluR2 and β2AR mediated increase in pathogenic tau. […] After transfection, cells were treated with either vehicle or 10 μM isoproterenol (Iso), lysed and immunoblotted for indicated proteins. Representative blots are shown. […] 1-way ANOVA with Dunnett's test. […] Representative blots are shown. […] 1-way ANOVA with Dunnett's test. […] 1-way ANOVA with Dunnett's test.
At present, it is not clear how different GPCRs, such as β2AR and mGluR2, and their agonists alter tau phosphorylation. One commonality of downstream signaling between these GPCRs is β-arrestin1 and β-arrestin2, which were initially identified and characterized based on its function to internalize and desensitize GPCRs, including β2AR (Lohse, M. J. et al. J Biol Chem (1992) 267:8558-8564) and mGluR2 (lacovelli, L. et al. Mol Pharmacol (2009) 75:991-1003). To test whether β-arrestin1 and/or β-arrestin2 is required for β2AR-mediated regulation of tau, Hela-V5-tau cells were transfected with control siRNA or β-arrestin1 siRNA and treated either vehicle or 10 μM Iso. […] Next, assessed was whether β-arrestin1 is required for mGluR2-mediated tau phosphorylation. […] Next, Hela-V5-tau cells were transfected with control siRNA or β-arrestin2 siRNA and treated vehicle, 10 μM Iso or LY-379,268.

tau phosphorylation [3] = settings: cited from earlier work
[4] = tested on: total tau levels in HeLa-V5-tau cells; assay: Total tau by western blotting in HeLa-V5-tau cells treated with compounds; type: cell-based; settings: 10 μM, 6 hours
Experimental: (§1) Brain homogenates and cultured cells were lysed with RIPA buffer (50 mM Tris pH 7.4, 150 mM NaCl, 2 mM ethlenediaminetetraacetic acid, 1% NP-40, 0.1% sodium dodecyl sulfate) plus protease and phosphatase inhibitors. Proteins were extracted and centrifuged at 15000 rpm for 15 min at 4° C., and RIPA insoluble fractions were lysed with 5% SDS with 1% β-mercaptoethanol, 50 mM Tris-HCl pH 6.8, 12.5 mM EDTA, 10% glycerol, and 0.02% bromophenol blue. Supernatants were used for western blot analysis. […]. co-IP experiments were carried out from NP40 lysates or indicated buffers with preclearing with IgG beads followed by IP with IgG beads alone or IgG beads+indicated antibodies, extensive washing (5×) with the original buffer, and Western blotting on SDS-PAGE. Sarkosyl extraction was performed as previously described (Hasegawa M, et al. (2007) Brain 130(Pt 5):1386-1394). Briefly, brain homogenates were lysed with A68 buffer containing 10 mM Tris-HCl, pH 7.4, 0.8M NaCl, 10% Sucrose, 1 mM EGTA). Samples were centrifuged at 400 g for 20 min at 4° C., and 1% sarkosyl was added to the collected supernatants. The samples were incubated for 1.5 h and centrifuged at 80,000 g for 30 min at room temperature. The pellets were resuspended in 100 ul of 50 mM Tris-HCl, pH 7.4.
(n=4, one-way ANOVA, post hoc Dunnett's, **P<0.005, ***P<0.0005).

[5] = tested on: sarkosyl-insoluble tau in HeLa-V5-tau cells; assay: Sarkosyl soluble and insoluble fractionation of compound-treated HeLa-V5-tau cells; type: cell-based; settings: 20 μM, 6 hours
Experimental: as §1
FIGS. 27A and 27B show C1 and C2 compounds reduce pathogenic tau. […]

[6] = tested on: HT7 (total human tau) in Tau-P301S hippocampal primary neurons; assay: HT7 staining of DIV21 hippocampal primary neurons from Tau-P301S mice treated with compounds; type: cell-based; settings: 20 μM, 6 hours
Experimental: Primary mouse hippocampal and cortical neuronal cultures were previously described (Woo J A, et al. (2019) Commun Biol 2:112; Woo J A, et al. (2017) Hum Mol Genet 26(20):3973-3988; Woo J A, et al. (2015) Cell Death Differ 22(6):1069-1070). Briefly, primary neurons were prepared from P0 mice. Both hippocampus and cortex were dissected separately in HBSS and digested with trypsin. Neurons were plated on glass coverslips coated with poly-D-lysine (Sigma-Aldrich, St Louis, MO, USA) and maintained in neurobasal medium with glutamax (Invitrogen, Carlsbad, CA, USA) and B27 supplement (Invitrogen, Carlsbad, CA, USA).
Cells were fixed with 4% paraformaldehyde for 15 min at room temperature and washed with 0.2% triton in TBS and blocked using 3% BSA with 0.1% triton x-100 for 1 hr, incubated with primary antibodies for overnight at 4° C. and fluorescently labeled secondary antibodies for 45 min at room temperature. […] Images were captured with the Olympus FV10i confocal microscope (Tokyo, Japan), and the immunoreactivities were quantified using the Image J software (National Institutes of Health, Bethesda, MD). Immunoreactivities were quantitated from every 12th serial section through an entire hippocampus. […] Regions of interest were chosen randomly, and investigators were blinded to experimental conditions during image acquisition and quantification. […]

[7] = target: T1, GFP-βarrestin2/Flag-βarrestin2 complexes (β-arrestin2 oligomerization) (Rattus norvegicus, UniProt P29067); assay: Proximity ligation assay (PLA) for GFP-βarrestin2/Flag-βarrestin2 complexes; type: cell-based; settings: 20 μM, 6 hours, Hela-V5-tau cells
T1 construct: expressed in transfected cells; host or cells: Hela-V5-tau cells
T1 sequence (P29067 whole entry, one chain of several): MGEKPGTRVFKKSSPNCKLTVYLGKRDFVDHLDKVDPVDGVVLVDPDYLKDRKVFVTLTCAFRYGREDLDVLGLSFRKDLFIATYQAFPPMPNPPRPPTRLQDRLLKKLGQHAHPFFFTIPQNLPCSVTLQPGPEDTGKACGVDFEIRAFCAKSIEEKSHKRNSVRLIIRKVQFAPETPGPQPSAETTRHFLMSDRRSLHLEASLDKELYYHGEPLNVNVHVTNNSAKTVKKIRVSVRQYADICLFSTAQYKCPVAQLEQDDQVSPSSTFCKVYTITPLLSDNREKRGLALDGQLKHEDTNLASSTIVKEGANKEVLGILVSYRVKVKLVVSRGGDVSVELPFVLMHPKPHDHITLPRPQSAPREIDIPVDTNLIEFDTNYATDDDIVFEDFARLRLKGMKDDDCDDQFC
Experimental: The assay was performed using commercially available reagents (Duolink, Sigma-Aldrich, St Louis, MO), with transfection of Hela V5-tau cells with WT β-arrestin2-flag and β-arrestin2-myc, without and with the mutant β-arrestin2 ΔIP6C or β-arrestin2 ΔIP6N constructs. Cells were fixed with 4% paraformaldehyde for 15 min at room temperature and washed with 0.2% triton in TBS. After washing, cells were blocked with 0.2% Triton in 3% Normal goat serum for 1 hour at room temperature. After applying primary antibodies overnight at 4° C., cells were washed and incubated with the PLA probes at 37° C. (1 h), washed with buffer A, incubated with ligation solution at 37° C. (30 min), washed with washing buffer A, incubated with amplification solution at 37° C. (100 min), and washed with washing buffer B before mounting.
FIGS. 28A and 28B show compounds C2 and C2 inhibit β-arrestin2 oligomerization. Hela-V5-tau cells were transfected with GFP-βarrestin2 and Flag-βarrestin2 and treated with 20 μM of 01, C1, or C2 for 6 hours.

[8] = target: T2, GFP-βarrestin2/Flag-βarrestin2 complexes (βarrestin2 self-interaction) (Rattus norvegicus, UniProt P29067); assay: Co-immunoprecipitation (co-IP) for GFP-βarrestin2/Flag-βarrestin2 complexes; type: cell-based; settings: 20 μM, 6 hours, Hela-V5-tau cells
T2 construct: expressed in transfected cells; host or cells: Hela-V5-tau cells
T2 sequence (P29067 whole entry, one chain of several): as above
Experimental: as §1
FIGS. 28A and 28B show compounds C2 and C2 inhibit β-arrestin2 oligomerization. […]

tau phosphorylation [9] = settings: cited from earlier work; remark: listed apart in the source
[10] = target: T3, β-arrestin2 oligomerization (Rattus norvegicus, UniProt P29067); assay: FRET assay CFP-βarrestin2/YFP-βarrestin2 in Hela-V5-tau cells; type: cell-based; settings: 20 μM, 30 min
T3 construct: expressed in transfected cells; host or cells: Hela-V5-tau cells
T3 sequence (P29067 whole entry): as the sequence (P29067 whole entry, one chain of several) above

Compound: CC(C)NCC(O)c1ccc(O)c(O)c1 (stereo not drawn) [Isoproterenol]
phospho-tau (phospho-tau [1]): significantly increased
tau phosphorylation (phospho-tau [2]): increased
phospho-tau response in β-arrestin1 siRNA transfected cells (phospho-tau [2]): failed to respond
tau phosphorylation, control siRNA transfected cells (phospho-tau [2]): increased
tau phosphorylation in rats (tau phosphorylation [3]): markedly increases tau phosphorylation

βarrestin2 oligomerization by PLA [7]: significant reduction
Compound: O=C(CNC(=O)c1ccc2c(c1)CCC2)NCc1cn2ccccc2n1 [C1, 2-[(2,3-dihydro-1H-inden-5-yl)formamido]-N-({imidazo[1,2-a]pyridin-2-yl}methyl)acetamide]
total tau levels [4]: significantly decreased
sarkosyl-insoluble tau levels [5]: significantly decreased
HT7 immunoreactivity (total human tau) [6]: significantly decreased
βarrestin2 self-interaction by co-IP [8]: reduce βarrestin2 self-interaction to background levels

Compound: N[C@@]1(C(=O)O)CO[C@H]2[C@H](C(=O)O)[C@H]21 [LY-379,268]
phospho-tau (phospho-tau [1]): increased
tau phosphorylation (phospho-tau [2]): increased
phospho-tau response in β-arrestin1 siRNA transfected cells (phospho-tau [2]): failure to respond
tau phosphorylation, control siRNA transfected cells (phospho-tau [2]): increased
tau phosphorylation via ERK activation (tau phosphorylation [9]): increase tau phosphorylation

βarrestin2 oligomerization by PLA [7]: significant reduction
CFP to YFP FRET signal [10]: reduces CFP to YFP FRET signal
Compound: Cc1ccc(NCCNC(=O)c2cc(-c3ccccc3)no2)nn1 [C2, N-{2-[(6-methylpyridazin-3-yl)amino]ethyl}-3-phenyl-1,2-oxazole-5-carboxamide]
total tau levels [4]: significantly decreased
sarkosyl-insoluble tau levels [5]: significantly decreased
HT7 immunoreactivity (total human tau) [6]: significantly decreased
βarrestin2 self-interaction by co-IP [8]: reduce βarrestin2 self-interaction to background levels
